Reference: patent publication US20250179103A1, “6-OXODECAHYDROPYRROLO[1,2-A][1,5]DIAZOCINE AND 6-OXODECAHYDRO-4H-PYRROLO[2,1-D][1,5]THIAZOCINE DERIVATIVES AS STAT3 AND STAT6 MODULATORS FOR THE TREATMENT OF CANCER AND INFLAMMATORY CONDITIONS” (Recludix Pharma, Inc., priority 2022, published 2025)

Tests used:
[1] = molecular target: T1, Recombinant STAT3 protein (STAT3(G127-I722)) (Homo sapiens, UniProt P40763); experiment: STAT3 Fluorescence Polarization (FP) Assay; type: binding; conditions: STAT3(G127-I722) 25 nM, probe 5-FAM-GpYLPQTV-NH2 2 nM, 45-minute incubation
T1 construct: Recombinant STAT3 protein (STAT3(G127-I722))
Outline: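 Fluorescence polarization after a 45-min room-temperature incubation measured compound displacement of a 2 nM fluorescein-labelled phosphotyrosine peptide (5-FAM-GpYLPQTV-NH2) from 25 nM recombinant STAT3(G127-I722). Buffer was 10 mM HEPES pH 7.4 with 1% DMSO final. IC50s were fitted by nonlinear regression of mP against log concentration.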

[2] = molecular target: T2, Recombinant STAT6 protein (STAT6(W123-T658)) (Homo sapiens, UniProt P42226); experiment: STAT6 Fluorescence Polarization (FP) Assay; type: binding; conditions: STAT6(W123-T658) 250 nM, probe 5-FAM-ApYKPFQDLI-NH2 2 nM, 45-minute incubation
T2 construct: Recombinant STAT6 protein (STAT6(W123-T658))
T2 sequence (P42226 123-658): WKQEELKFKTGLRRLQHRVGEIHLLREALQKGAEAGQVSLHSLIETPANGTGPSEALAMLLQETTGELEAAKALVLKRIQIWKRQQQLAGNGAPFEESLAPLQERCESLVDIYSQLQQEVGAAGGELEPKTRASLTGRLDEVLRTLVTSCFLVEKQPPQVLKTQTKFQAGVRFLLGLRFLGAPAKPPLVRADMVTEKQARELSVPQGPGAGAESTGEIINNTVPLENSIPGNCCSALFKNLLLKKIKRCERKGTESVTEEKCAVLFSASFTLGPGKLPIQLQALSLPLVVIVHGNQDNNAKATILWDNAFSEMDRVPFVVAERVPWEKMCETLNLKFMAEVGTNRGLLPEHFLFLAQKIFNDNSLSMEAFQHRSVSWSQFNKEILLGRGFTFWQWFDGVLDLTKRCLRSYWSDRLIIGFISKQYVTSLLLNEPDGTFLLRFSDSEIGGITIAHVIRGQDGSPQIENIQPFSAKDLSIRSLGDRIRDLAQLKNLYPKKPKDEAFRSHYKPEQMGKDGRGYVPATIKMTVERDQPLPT
Outline: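 Displacement of a fluorescent phosphotyrosine peptide (5-FAM-ApYKPFQDLI-NH2, 2 nM) from STAT6(W123-T658) (250 nM), 1% DMSO, pH 7.4 HEPES buffer. After 45 min at room temperature, polarization (mP) was plotted versus log compound concentration and fitted by nonlinear regression to give IC50.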

T1 sequence (P40763 127-722): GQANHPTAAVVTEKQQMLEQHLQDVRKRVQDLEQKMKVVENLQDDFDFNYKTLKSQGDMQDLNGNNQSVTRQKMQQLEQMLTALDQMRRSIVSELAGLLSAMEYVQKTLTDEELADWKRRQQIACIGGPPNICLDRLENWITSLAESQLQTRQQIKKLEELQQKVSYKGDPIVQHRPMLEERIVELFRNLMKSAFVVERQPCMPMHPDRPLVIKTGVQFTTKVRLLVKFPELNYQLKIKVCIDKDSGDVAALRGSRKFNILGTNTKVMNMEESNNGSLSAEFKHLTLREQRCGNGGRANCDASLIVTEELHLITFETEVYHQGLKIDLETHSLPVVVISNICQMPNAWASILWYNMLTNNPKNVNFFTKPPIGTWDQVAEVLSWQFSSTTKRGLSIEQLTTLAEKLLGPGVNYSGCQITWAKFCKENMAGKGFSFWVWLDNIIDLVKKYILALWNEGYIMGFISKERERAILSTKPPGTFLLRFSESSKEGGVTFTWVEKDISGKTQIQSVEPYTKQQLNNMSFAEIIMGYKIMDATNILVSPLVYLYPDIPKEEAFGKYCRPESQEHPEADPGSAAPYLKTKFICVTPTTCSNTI

SMILES	IC50 [1] [nM]	IC50 [2] [nM]
CC(=O)N1CC[C@H]2CC[C@@H](C(=O)N3CC[C@@H](C(=O)N4CCCCC4)C3)N2C(=O)[C@@H](NC(=O)c2cc3cc(C(F)(F)P(=O)(O)O)ccc3s2)C1 [Compound 194, ((2-(((5S,8S,10aR)-3-acetyl-6-oxo-8-((R)-3-(piperidine-1-carbonyl)pyrrolidine-1-carbonyl)decahydropyrrolo[1,2-a][1,5]diazocin-5-yl)carbamoyl)benzo[b]thiophen-5-yl)difluoromethyl)phosphonic acid]	1000 to 10000	300 to 3000
CC(=O)N1CC[C@H]2CC[C@@H](C(=O)N3CC(C(=O)N4CCN(C)CC4)C3)N2C(=O)[C@@H](NC(=O)c2cc3cc(C(F)(F)P(=O)(O)O)ccc3s2)C1 [Compound 195, ((2-(((5S,8S,10aR)-3-acetyl-8-(3-(4-methylpiperazine-1-carbonyl)azetidine-1-carbonyl)-6-oxodecahydropyrrolo[1,2-a][1,5]diazocin-5-yl)carbamoyl)benzo[b]thiophen-5-yl)difluoromethyl)phosphonic acid]	1000 to 10000	300 to 3000
CC(=O)N1CC[C@H]2CC[C@@H](C(=O)N3CCOc4cc(-c5ccccc5)ccc43)N2C(=O)[C@@H](NC(=O)c2cc3cc(C(F)(F)P(=O)(O)O)ccc3s2)C1 [Compound 197, ((2-(((5S,8S,10aR)-3-acetyl-6-oxo-8-(7-phenyl-3,4-dihydro-2H-benzo[b][1,4]oxazine-4-carbonyl)decahydropyrrolo[1,2-a][1,5]diazocin-5-yl)carbamoyl)benzo[b]thiophen-5-yl)difluoromethyl)phosphonic acid]	100 to 1000	300 to 3000
CC(=O)N1CC[C@H]2CC[C@@H](C(=O)Nc3ccc4nnccc4c3)N2C(=O)[C@@H](NC(=O)c2ccc3ccc(C(F)(F)P(=O)(O)O)cc3c2)C1 [Compound 199, ((7-(((5S,8S,10aR)-3-acetyl-8-(cinnolin-6-ylcarbamoyl)-6-oxodecahydropyrrolo[1,2-a][1,5]diazocin-5-yl)carbamoyl)naphthalen-2-yl)difluoromethyl)phosphonic acid]	1000 to 10000	300 to 3000

The next lines start with the values.

IC50 [1] [nM]	IC50 [2] [nM]	SMILES
100 to 1000	300 to 3000	CC(=O)N1CC[C@H]2CC[C@@H](C(=O)N3CC[C@H](C(=O)N4CCCCC4)C3)N2C(=O)[C@@H](NC(=O)c2cc3cc(C(F)(F)P(=O)(O)O)ccc3s2)C1 [Compound 193, ((2-(((5S,8S,10aR)-3-acetyl-6-oxo-8-((S)-3-(piperidine-1-carbonyl)pyrrolidine-1-carbonyl)decahydropyrrolo[1,2-a][1,5]diazocin-5-yl)carbamoyl)benzo[b]thiophen-5-yl)difluoromethyl)phosphonic acid]
100 to 1000	300 to 3000	CC(=O)N1CC[C@H]2CC[C@@H](C(=O)Nc3ccc(-c4ccccc4)cc3Cc3nccs3)N2C(=O)[C@@H](NC(=O)c2cc3cc(C(F)(F)P(=O)(O)O)ccc3s2)C1 [Compound 196, ((2-(((5S,8S,10aR)-3-acetyl-6-oxo-8-((3-(thiazol-2-ylmethyl)-[1,1′-biphenyl]-4-yl)carbamoyl)decahydropyrrolo[1,2-a][1,5]diazocin-5-yl)carbamoyl)benzo[b]thiophen-5-yl)difluoromethyl)phosphonic acid]
100 to 1000	300 to 3000	CNC(=O)Cc1cc(-c2ccccc2)ccc1NC(=O)[C@@H]1CC[C@@H]2CCN(C(C)=O)C[C@H](NC(=O)c3cc4cc(C(F)(F)P(=O)(O)O)ccc4s3)C(=O)N21 [Compound 198, ((2-(((5S,8S,10aR)-3-acetyl-8-((3-(2-(methylamino)-2-oxoethyl)-[1,1′-biphenyl]-4-yl)carbamoyl)-6-oxodecahydrpyrrolo[1,2-a][1,5]diazocin-5-yl)carbamoyl)benzo[b]thiophen-5-yl)difluoromethyl)phosphonic acid]
